Where two headings read alike, the source gives them in different places.
Key:
Type in all cases: cell-based
[1] = target: T1, human muscarinic M1 receptor (Homo sapiens, UniProt P11229); assay: Alphascreen Surefire phospho-ERK1/2 functional assay, M1; conditions: for Emax: CHO, read-out: % Emax cf. ACh (M1), CHO cells stably expressing human M1; for Emax / % Emax cf. ACh (M1): Emax relative to ACh; for EC50 / pEC50 M1: agonist 5 min, 37° C.
T1 sequence (P11229 1-460): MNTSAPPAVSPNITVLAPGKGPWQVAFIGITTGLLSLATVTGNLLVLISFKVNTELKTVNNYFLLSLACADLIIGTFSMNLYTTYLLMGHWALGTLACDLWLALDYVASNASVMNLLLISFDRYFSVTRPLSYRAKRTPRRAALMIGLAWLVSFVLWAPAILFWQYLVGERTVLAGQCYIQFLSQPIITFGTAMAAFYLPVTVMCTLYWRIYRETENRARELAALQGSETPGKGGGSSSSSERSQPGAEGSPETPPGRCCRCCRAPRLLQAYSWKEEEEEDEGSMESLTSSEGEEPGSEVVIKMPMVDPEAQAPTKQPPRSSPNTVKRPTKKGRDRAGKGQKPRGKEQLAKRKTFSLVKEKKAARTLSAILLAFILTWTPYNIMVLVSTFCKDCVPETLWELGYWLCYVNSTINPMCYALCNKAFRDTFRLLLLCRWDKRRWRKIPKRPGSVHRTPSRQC
Protocol: (§1) ERK1/2 phosphorylation is a downstream consequence of both Gq/11 and Gi/o protein coupled receptor activation, making it highly suitable for the assessment of M1, M3 (Gq/11 coupled) and M2, M4 receptors (Gi/o coupled), rather than using different assay formats for different receptor subtypes. CHO cells stably expressing the human muscarinic M1, M2, M3 or M4 receptor were plated (25K/well) onto 96-well tissue culture plates in MEM-alpha+10% dialysed FBS. Once adhered, cells were serum-starved overnight. Agonist stimulation was performed by the addition of 5 μL agonist to the cells for 5 min (37° C.). Media was removed and 50 μL of lysis buffer added. After 15 min, a 4 μL sample was transferred to 384-well plate and 7 μL of detection mixture added. […]

[2] = target: T2, human muscarinic M2 receptor (Homo sapiens, UniProt P08172); assay: Alphascreen Surefire phospho-ERK1/2 functional assay, M2; conditions: for Emax: CHO
T2 sequence (P08172 1-466): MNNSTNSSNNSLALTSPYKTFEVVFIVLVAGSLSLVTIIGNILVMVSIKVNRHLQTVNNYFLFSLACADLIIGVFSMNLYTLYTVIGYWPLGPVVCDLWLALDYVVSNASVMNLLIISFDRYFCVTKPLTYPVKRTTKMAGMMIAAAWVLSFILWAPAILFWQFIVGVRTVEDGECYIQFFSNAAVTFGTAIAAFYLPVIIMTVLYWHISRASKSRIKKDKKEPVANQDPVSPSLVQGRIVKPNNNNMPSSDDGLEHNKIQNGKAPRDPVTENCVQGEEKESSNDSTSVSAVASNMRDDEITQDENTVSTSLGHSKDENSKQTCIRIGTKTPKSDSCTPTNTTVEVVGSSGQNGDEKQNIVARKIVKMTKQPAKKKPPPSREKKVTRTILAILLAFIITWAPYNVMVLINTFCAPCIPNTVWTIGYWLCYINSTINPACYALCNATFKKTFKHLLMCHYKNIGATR
Protocol: as §1

[3] = target: T3, human muscarinic M3 receptor (Homo sapiens, UniProt P20309); assay: Alphascreen Surefire phospho-ERK1/2 functional assay, M3; conditions: for Emax: CHO
T3 construct: expressed in transfected cells
T3 sequence (P20309 whole entry): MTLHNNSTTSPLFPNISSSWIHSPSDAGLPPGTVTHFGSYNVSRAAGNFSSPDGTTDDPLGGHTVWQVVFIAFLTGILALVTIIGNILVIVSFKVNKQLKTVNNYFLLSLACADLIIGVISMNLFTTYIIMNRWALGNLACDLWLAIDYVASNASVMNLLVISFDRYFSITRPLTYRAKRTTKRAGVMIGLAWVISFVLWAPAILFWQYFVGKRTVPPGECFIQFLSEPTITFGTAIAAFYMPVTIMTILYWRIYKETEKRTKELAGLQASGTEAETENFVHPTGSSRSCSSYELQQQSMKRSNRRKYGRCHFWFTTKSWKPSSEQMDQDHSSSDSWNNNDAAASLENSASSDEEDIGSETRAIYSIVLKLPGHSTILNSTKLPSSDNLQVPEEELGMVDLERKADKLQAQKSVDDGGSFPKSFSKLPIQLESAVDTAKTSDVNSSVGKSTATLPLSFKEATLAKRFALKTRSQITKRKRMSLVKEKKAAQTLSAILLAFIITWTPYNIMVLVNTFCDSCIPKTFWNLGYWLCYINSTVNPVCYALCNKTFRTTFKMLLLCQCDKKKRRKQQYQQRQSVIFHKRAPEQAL
Protocol: as §1

[4] = target: T4, human muscarinic M4 receptor (Homo sapiens, UniProt P08173); assay: Alphascreen Surefire phospho-ERK1/2 functional assay, M4; conditions: for EC50 / % Emax cf. ACh (M4) / pEC50 M4: CHO cells stably expressing human M4; for EC50 / pEC50 M4: agonist 5 min, 37° C.; for EC50: read-out: pEC50 M4 (converted); for Emax: CHO, read-out: % Emax cf. ACh (M4), CHO cells stably expressing human M4; for Emax / % Emax cf. ACh (M4): Emax relative to ACh
T4 construct: expressed in transfected cells
T4 sequence (P08173 1-479): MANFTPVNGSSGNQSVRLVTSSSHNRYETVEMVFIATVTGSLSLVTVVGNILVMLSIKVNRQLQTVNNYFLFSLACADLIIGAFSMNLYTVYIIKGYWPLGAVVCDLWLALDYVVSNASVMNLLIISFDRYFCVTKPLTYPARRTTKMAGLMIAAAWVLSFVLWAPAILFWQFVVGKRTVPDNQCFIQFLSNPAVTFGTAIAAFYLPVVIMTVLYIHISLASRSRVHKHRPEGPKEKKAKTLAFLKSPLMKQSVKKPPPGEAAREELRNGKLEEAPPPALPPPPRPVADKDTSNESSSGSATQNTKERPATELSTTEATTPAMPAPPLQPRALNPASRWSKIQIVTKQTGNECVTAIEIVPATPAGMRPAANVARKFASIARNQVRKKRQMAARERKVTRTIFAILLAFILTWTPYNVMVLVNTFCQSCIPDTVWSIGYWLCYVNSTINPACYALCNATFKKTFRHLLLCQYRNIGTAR
Protocol: as §1

[5] = pEC50 M1, CHO cells stably expressing human M1
[6] = CHO cells stably expressing human M1
[7] = CHO cells stably expressing human M1, read-out: pEC50 M1 (converted)
[8] = CHO cells stably expressing human M2, agonist 5 min, 37° C., read-out: pEC50 M2 (converted)
[9] = read-out: % Emax cf. ACh (M2), CHO cells stably expressing human M2, Emax relative to ACh
[10] = CHO cells stably expressing human M3, agonist 5 min, 37° C., read-out: pEC50 M3 (converted)
[11] = read-out: % Emax cf. ACh (M3), CHO cells stably expressing human M3, Emax relative to ACh
[12] = CHO cells stably expressing human M2, Emax relative to ACh
[13] = CHO cells stably expressing human M2, agonist 5 min, 37° C.
[14] = CHO cells stably expressing human M3, Emax relative to ACh
[15] = CHO cells stably expressing human M3, agonist 5 min, 37° C.

Row | Structure (SMILES) | Emax [1] | EC50 [4] | Emax [4] | % Emax cf. ACh (M1) [1, 6] | EC50 [1, 7] | EC50 [2, 8] | Emax [2, 9] | EC50 [3, 10] | Emax [3, 11] | % Emax cf. ACh (M4) [4] | pEC50 M1 [1, 6] | % Emax cf. ACh (M2) [2, 12] | pEC50 M2 [2, 13] | % Emax cf. ACh (M3) [3, 14] | pEC50 M3 [3, 15] | pEC50 M4 [4] | other results
1 | Cc1noc(N2CCCC(N3CCC4(CC3)C(=O)Nc3ccccc34)CC2)n1 (single isomer, unassigned) [10-6 Isomer 1] | 76% | 77.6 nM | 77% | – | – | – | – | – | – | – | – | – | – | – | – | – | EC50 [1, 5]: 661 nM; EC50 [2]: > 20000 nM; Emax ([2]; read-out: % Emax cf. ACh (M2)): 60%; EC50 [3]: > 20000 nM; Emax ([3]; read-out: % Emax cf. ACh (M3)): 4%
2 | Cc1noc(N2CCCC(N3CCC(N4C[C@H](F)C[C@@H]4CO)CC3)CC2)n1 (single isomer, unassigned) [10-7 Isomer 1] | – | 105 nM | 89% | (44) % | 3720 nM | > 20000 nM | 15% | > 20000 nM | 2% | – | – | – | – | – | – | – | –
3 | Cc1noc(N2CC3CC(N4CCC5(CC4)CNC(=O)C5)CC2C3)n1 (single isomer, unassigned) [11-2 Isomer 2] | 67% | > 20000 nM | 15% | – | 9.55 nM | > 20000 nM | 8% | > 20000 nM | 5% | – | – | – | – | – | – | – | –
4 | Cc1noc(N2CC3CC(N4CCC5(CC4)CNC(=O)O5)CC2C3)n1 (single isomer, unassigned) [11-3 Isomer 2] | 65% | > 20000 nM | 11% | – | 70.8 nM | > 20000 nM | 21% | > 20000 nM | 22% | – | – | – | – | – | – | – | –
5 | Cc1noc(N2CC3CCC2CC3N2CCC3(CC2)CNC(=O)C3)n1 (single isomer, unassigned) [12-1 Isomer 2] | – | 117 nM | – | (106) % | 32.4 nM | > 20000 nM | 6% | > 20000 nM | 2% | (30) % | – | – | – | – | – | – | –
6 | Cc1noc(N2CC3CCC2CC3N2CCC3(CC2)CNC(=O)O3)n1 (single isomer, unassigned) [12-2 Isomer 2] | 80% | > 20000 nM | 18% | – | 398 nM | > 20000 nM | 14% | > 20000 nM | 1% | – | – | – | – | – | – | – | –
7 | O=C1CC2(CCN(C3CC4CCC(C3)N4c3nc(C(F)(F)F)no3)CC2)CN1 (single isomer, unassigned) [12-3 Isomer 1] | 67% | > 20000 nM | 14% | – | – | – | – | – | – | – | – | – | – | – | – | – | EC50 [1, 5]: 31.6 nM; EC50 [2]: > 20000 nM; Emax ([2]; read-out: % Emax cf. ACh (M2)): 19%; EC50 [3]: > 20000 nM; Emax ([3]; read-out: % Emax cf. ACh (M3)): 31%
8 | CCC1(NC(=O)C2CCN(C3CC4CCC(C3)N4c3nc(C)no3)CC2)CCC1 (single isomer, unassigned) [12-8 Isomer 2] | 104% | 933 nM | 109% | – | 135 nM | 2450 nM | – | > 20000 nM | – | – | – | – | – | – | – | – | Emax ([2]; read-out: % Emax cf. ACh (M2)): 33%; Emax ([3]; read-out: % Emax cf. ACh (M3)): 3%
9 | CC1(NC(=O)C2CCN(C3CC4CCC(C3)N4c3nc(C(F)(F)F)no3)CC2)CCC1 (single isomer, unassigned) [12-14 Isomer 2] | – | 331 nM | – | (115) % | – | – | – | – | – | (40) % | – | – | – | – | – | – | EC50 [1, 5]: 18.6 nM; EC50 [2]: > 20000 nM; Emax ([2]; read-out: % Emax cf. ACh (M2)): 25%; EC50 [3]: > 20000 nM; Emax ([3]; read-out: % Emax cf. ACh (M3)): 9%
10 | CC(=O)N(CC1(C)CCC1)C1CCN(C2CC3CCC(C2)N3c2nc(C)no2)CC1 (single isomer, unassigned; isomer 1) [12-18 Isomer 1] | – | – | – | (87) % | – | – | – | – | – | (62) % | 7.00 | (27) % | 5.23 | (15) % | <4.70 | 6.68 | –
11 | CCN(CC)C(=O)[C@H]1[C@@H]2CN(C3CC4CCC(C3)N4c3nc(C)no3)C[C@@H]21 (single isomer, unassigned; isomer 1) [12-25 Isomer 1] | – | – | – | (102) % | – | – | – | – | – | (22) % | 6.70 | (31) % | <4.70 | (50) % | <4.70 | <4.70 | –
12 | O=C1CC2(CCN(C3CC4CCC(C3)N4c3nc(C(F)(F)F)no3)CC2)CN1 (single isomer, unassigned; isomer 2) [12-3 Isomer 2] | – | – | – | (103) % | – | – | – | – | – | (23) % | 8.30 | (14) % | <4.70 | (70) % | <4.70 | 6.70 | –
13 | CC(=O)N(CC1(C)CCC1)C1CCN(C2CC3CCC(C2)N3c2nc(C)no2)CC1 (single isomer, unassigned; isomer 2) [12-18 Isomer 2] | – | – | – | (92) % | – | – | – | – | – | (92) % | 8.63 | (90) % | 6.59 | (48) % | 5.72 | 7.83 | –
14 | Cc1noc(N2C3COCC2CC(N2C[C@@H]4[C@H](C2)[C@H]4C(=O)N(C)C(C)C)C3)n1 (single isomer, unassigned; isomer 2) [12-22 Isomer 2] | – | – | – | (102) % | – | – | – | – | – | (108) % | 8.06 | (81) % | 5.68 | (52) % | 4.90 | 6.23 | –
15 | CCN(CC)C(=O)[C@H]1[C@@H]2CN(C3CC4COCC(C3)N4c3nc(C(F)(F)F)no3)C[C@@H]21 (single isomer, unassigned; isomer 2) [12-23 Isomer 2] | – | – | – | (132) % | – | – | – | – | – | (30) % | 7.59 | (13) % | <4.70 | (25) % | <4.70 | 6.92 | –
16 | CCN(C)C(=O)[C@H]1[C@@H]2CN(C3CC4CCC(C3)N4c3nc(C)no3)C[C@@H]21 (single isomer, unassigned; isomer 2) [12-24 Isomer 2] | – | – | – | (102) % | – | – | – | – | – | (83) % | 7.58 | (60) % | 5.33 | (25) % | <4.70 | 6.02 | –
